In publication PMC9627161 (Frontiers in Pharmacology, 2022):
Peptide text beside a SMILES is read from it.

How the values were obtained:
Mpro = Mpro (Severe acute respiratory syndrome coronavirus 2, UniProt P0DTD1); assay: MST binding to Mpro protein; design: species or system SARS-CoV-2; settings: mean ± SD (n = 3)
SARS-CoV-2 pseudovirus = settings: 1 h, 5 μM
RBD = RBD (Severe acute respiratory syndrome coronavirus 2, UniProt P0DTC2); assay: MST binding to RBD protein; design: species or system SARS-CoV-2; settings: mean ± SD (n = 3)
Description: To detect the interaction between the peptides and RBD/Mpro, the MST experiments were performed using the Monolith NT.115 instrument. RBD and Mpro proteins were labeled with the Lys labeling kit, respectively. In the assay, the final concentration of the labeled protein was 50 nM, and the peptides were gradient-diluted in 1:1 dilution and starting from 12.5 μM. After brief incubation in MST buffer, the samples were loaded into MST-standard glass capillaries. All the measurements were performed in triplicate using automatically assigned 50% MST power and 20% LED power.

SMILES | Mpro, Kd (Mpro) | Mpro, Kd (Mpro; listed as peptide-5) | inhibition against pseudotyped SARS-CoV-2 virus (SARS-CoV-2 pseudovirus) | RBD, Kd (RBD) | RBD, Kd (RBD; listed as peptide-21)
CC[C@H](C)[C@H](N)C(=O)N[C@@H](CCC(=O)O)C(=O)N[C@@H](CCC(=O)O)C(=O)N[C@@H](CCC(N)=O)C(=O)N[C@@H](C)C(=O)N[C@@H](CCCCN)C(=O)N[C@H](C(=O)N[C@@H](Cc1ccccc1)C(=O)N[C@@H](CC(C)C)C(=O)N[C@@H](CC(=O)O)C(=O)N[C@@H](CCCCN)C(=O)N[C@@H](Cc1ccccc1)C(=O)N[C@@H](CC(N)=O)C(=O)N[C@@H](Cc1c[nH]cn1)C(=O)N[C@@H](CCC(=O)O)C(=O)N[C@@H](CCCCN)C(=O)N[C@@H](CCC(=O)O)C(=O)N[C@@H](CC(=O)O)C(=O)N[C@@H](CC(C)C)C(=O)N[C@@H](CCC(=O)O)C(=O)N[C@@H](Cc1ccc(O)cc1)C(=O)N[C@@H](CCC(N)=O)C(=O)N[C@@H](CO)C(=O)N[C@@H](CO)C(=O)N[C@@H](CC(C)C)C(=O)N[C@@H](C)C(=O)N[C@@H](CO)C(=O)N[C@@H](Cc1c[nH]c2ccccc12)C(=O)N[C@@H](CC(N)=O)C(=O)N[C@@H](Cc1ccc(O)cc1)C(=O)N[C@@H](CC(N)=O)C(=O)N[C@H](C(=O)N[C@@H](CC(N)=O)C(=O)N[C@H](C(=O)N[C@H](C(=O)O)[C@@H](C)O)[C@@H](C)CC)[C@@H](C)O)[C@@H](C)O [Peptide-5] (H-IEEQAKTFLDKFNHEKEDLEYQSSLASWNYNTNIT-OH; N-terminus and C-terminus assumed) | no binding | no binding affinity | about 40% | – | –
CC(=O)N[C@@H](CO)C(=O)N[C@H](C(=O)N[C@@H](CO)C(=O)N[C@@H](C)C(=O)N[C@H](C(=O)N[C@@H](CC(C)C)C(=O)N[C@@H](CCC(N)=O)C(=O)N[C@@H](CO)C(=O)NCC(=O)N[C@@H](Cc1ccccc1)C(=O)N[C@@H](CCCNC(=N)N)C(=O)N[C@@H](CCCCN)C(=O)N[C@@H](Cc1ccccc1)C(N)=O)C(C)C)[C@@H](C)O [Peptide-21] | – | – | < 20% | no binding | no binding affinity
